Legend:
FGFR1 kinase = FGFR1 kinase (Homo sapiens (Human), UniProt P11362); experiment: Enzymologic experiment of FGFR1 (TR-FRET); type: biochemical; conditions: TR-FRET kinase activity
Method: 2. Enzymologic Experiment of FGFR1
In this experiment, the inhibitory effect of the compounds on FGFR1 kinase activity was tested by a fluorescence resonance energy transfer (TR-FRET) method, and the half maximal inhibitory concentration (IC50) of the compounds on the FGFR1 kinase activity was determined.
1) 1˜5 μL of FGFR1 enzymatic solution was added to a 384-well plate, and the final concentration of the enzyme was 0.1˜5 nM.
2) 1˜5 μL of diluted solution in gradient of the compound was added.
3) 1˜5 μL of a substrate mixture containing substrate polypeptide with a final concentration of 5˜50 nM and ATP with a final concentration of 10˜200 μM was added.
4) The mixture was incubated for 0.5-3 hours at room temperature.
5) 10 μL of EDTA and a test solution comprising labeled antibody were added, and the plate was incubated for 1 hour at room temperature.
6) The fluorescence signal values of each plate were determined by a microplate reader at 665 nm.
7) The inhibition rates were calculated according to the fluorescence signal values.
The IC50 of the compound was obtained by curve fitting according to the inhibition rates at different concentrations, and the enzymatic activity of the specific example compounds is shown in Table 1.

Hep 3B cells = experiment: Inhibition of Hep 3B cell proliferation (CellTiter-Glo); type: cell-based; conditions: Homo sapiens, Hep3B, 72 hours
Method: 3. Experiment on the Inhibition of Hep 3B Cell Proliferation
In this experiment, the inhibitory effect of the compounds on Hep 3B cell proliferation was tested by a CellTiter-Glo method, and the half maximal inhibitory concentration (IC50) of the compounds on the activity of cell proliferation was determined.
1) A 96-well cell culture plate was seeded with 50˜100 μL of Hep 3B cell suspension at a density of 1-5×10^4 cells/ml. The culture plate was incubated in an incubator for 16-24 hours (37° C., 5% CO2).
(§1) 2) Different concentrations of the test compound in a gradient dilution were added to the cells in the culture plate. The culture plate was incubated in an incubator for 72 hours (37° C., 5% CO2).
3) 50-100 μL of CellTiter-Glo reagent were added to each well. Then, the culture plate was shaken or left to stand for 5˜30 minutes at room temperature.
(§2) 4) The chemiluminescence signal values of each plate were determined by a microplate reader.
(§3) 5) The inhibition rates were calculated according to the chemiluminescence signal values.
6) The IC50 of the compound was obtained by curve fitting according to the inhibition rates at different concentrations, and the cell activity of the specific example compounds is shown in Table 2.

HuH-7 cells = experiment: Inhibition of HuH-7 cell proliferation (CellTiter-Glo); type: cell-based; conditions: Homo sapiens, 72 hours
Method: 4. Experiment on the Inhibition of HuH-7 Cell Proliferation
In this experiment, the inhibitory effect of the compounds on HuH-7 cell proliferation was tested by a CellTiter-Glo method, and the half maximal inhibitory concentration (IC50) of the compounds on the activity of cell proliferation was determined.
1) A 96-well cell culture plate was seeded with 50˜100 μL of HuH-7 cell suspension at a density of 1-5×10^4 cells/ml. The culture plate was incubated in an incubator for 16˜24 hours (37° C., 5% CO2).
as §1
(§4) 3) 50˜100 μL of CellTiter-Glo reagent were added to each well. Then, the culture plate was shaken or left to stand for 5˜30 minutes at room temperature.
as §2, §3
6) The IC50 of the compound was obtained by curve fitting according to the inhibition rates at different concentrations, and the cell activity of the specific Example compounds is shown in Table 2.

SK-HEP-1 cells = experiment: Inhibition of SK-HEP-1 cell proliferation (CellTiter-Glo); type: cell-based; conditions: Homo sapiens, SK-HEP1, 72 hours
Method: 5. Experiment on the Inhibition of SK-HEP-1 Cell Proliferation
In this experiment, the inhibitory effect of the compounds on SK-HEP-1 cell proliferation was tested by a CellTiter-Glo method, and the half maximal inhibitory concentration (IC50) of the compounds on the activity of cell proliferation was determined.
1) A 96-well cell culture plate was seeded with 50˜100 μL of SK-HEP-1 cell suspension at a density of 1-5×10^4 cells/ml. The culture plate was incubated in an incubator for 16˜24 hours (37° C., 5% CO2).
as §1, §4, §2, §3
The IC50 of the compound was obtained by curve fitting according to the inhibition rates at different concentrations, and the cell activity of the specific Example compounds is shown in Table 2.

[1] = Pharmacokinetic (PK) analysis in rats; type: in vivo, Sprague Dawley (SD) rats; conditions: SD rats, single intragastric administration, 5 mg/kg, plasma; for AUC(0-t) / AUC(0-inf) / half-life / MRT / Cmax: Sprague-Dawley, rat, po; for AUC(0-t): read-out: Area Under Curve AUC0-t; for AUC(0-inf): read-out: Area Under Curve AUC0-∞; for half-life: read-out: Half-Time t1/2 (converted); for MRT: read-out: Mean Residence Time MRT; for Cmax: read-out: Plasma Concentration Cmax
Method: 6. Pharmacokinetic (PK) Analysis in Rats
Mode of administration: a single intragastric administration.
Formulation: 0.5% CMC and 1% Tween 80, ultrasonic dissolution.
Sampling points: 0.5, 1, 2, 4, 6, 8 and 24 hours after administration.
1. 1.0 ml of intravenous blood was collected and placed in a K2EDTA test tube.
The blood was centrifuged at room temperature at the speed of 1000˜3000×g for 5˜20 minutes to isolate the plasma, which was then stored at −80° C. 2. 160 μL of acetonitrile were added to 40 μL of plasma sample for precipitation, and then the mixture was centrifuged at the speed of 500˜2000×g for 5˜20 minutes. 3. 100 μL of treated solution were taken, and the concentration of the test compound was analyzed by LC/MS/MS. The LC/MS/MS analytical instrument was AB Sciex API 4000.
Liquid Chromatography Analysis:
Condition of Liquid chromatography: Shimadzu LC-20AD pump
Chromatographic column: phenomenex Gemiu 5 um C18 50×4.6 mm
Mobile phase: Solution A is 0.1% aqueous formic acid solution, and solution B is acetonitrile
Elution time: 0-3.5 minutes, the eluent was as follows:
Mass spectrometry analysis:
Mass spectrometer setup conditions: positive ion electrospray ionization (ESI) mode.

FGFR1 kinase, sequence (P11362 22-822): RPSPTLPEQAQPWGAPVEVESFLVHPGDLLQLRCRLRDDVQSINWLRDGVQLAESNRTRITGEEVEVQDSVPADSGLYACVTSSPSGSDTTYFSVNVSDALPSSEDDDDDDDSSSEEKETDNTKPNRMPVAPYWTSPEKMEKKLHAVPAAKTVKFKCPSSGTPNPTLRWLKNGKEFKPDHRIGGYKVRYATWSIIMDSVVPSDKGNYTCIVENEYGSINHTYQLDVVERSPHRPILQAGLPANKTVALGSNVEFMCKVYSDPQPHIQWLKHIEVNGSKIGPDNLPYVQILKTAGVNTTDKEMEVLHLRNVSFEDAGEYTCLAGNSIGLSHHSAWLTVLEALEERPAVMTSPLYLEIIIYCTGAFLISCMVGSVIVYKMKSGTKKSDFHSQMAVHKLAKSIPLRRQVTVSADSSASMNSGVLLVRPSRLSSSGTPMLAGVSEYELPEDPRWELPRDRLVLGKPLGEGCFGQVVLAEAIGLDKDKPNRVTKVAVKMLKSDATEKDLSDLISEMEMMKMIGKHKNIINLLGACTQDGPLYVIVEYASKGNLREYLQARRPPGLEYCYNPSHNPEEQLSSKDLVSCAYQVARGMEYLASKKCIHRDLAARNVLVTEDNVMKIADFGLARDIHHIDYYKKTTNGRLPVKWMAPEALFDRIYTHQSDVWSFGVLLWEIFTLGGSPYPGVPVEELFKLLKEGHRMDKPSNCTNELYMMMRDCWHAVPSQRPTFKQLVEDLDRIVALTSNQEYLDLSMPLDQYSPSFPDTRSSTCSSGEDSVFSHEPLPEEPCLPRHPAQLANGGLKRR

For CO[C@H]1CCN(Cc2cc3c(nc2C=O)N(C(=O)Nc2cc(N[C@H]4CCOC4)c(C#N)cn2)CCC3)C1=O [Example 84, N-(5-Cyano-4-(((S)-tetrahydrofuran-3-yl)amino)pyridin-2-yl)-7-formyl-6-(((S)-3-methoxy-2-carbonylpyrrolidin-1-yl)methyl)-3,4-dihydro-1,8-naphthyridin-1(2H)-carboxamide], the IC50 (FGFR1 kinase) was greater than 10 µM, the IC50 (Hep 3B cells) was 0.0024 µM and the IC50 (HuH-7 cells) was 0.011 µM. For the same molecule, the IC50 (SK-HEP-1 cells) was greater than 10 µM, the Peak Time tmax [1] was 2 h and the AUC(0-t) [1] was 8.86 µg·h/mL. The AUC(0-inf) [1] was 8.95 µg·h/mL, the half-life [1] was 0.9 h and the MRT [1] was 3.1 h. It also gave a Cmax [1] of 2.62 µg/mL.

COCCNc1cc(NC(=O)N2CCCc3cc(CN(C)C(=O)C4CCOCC4)c(C=O)nc32)ncc1C#N [Example 98, N-(5-Cyano-4-((2-methoxyethyl)amino)pyridin-2-yl)-7-formyl-6-((N-methyltetrahydro-2H-pyran-4-carboxamido)methyl)-3,4-dihydro-1,8-naphthyridin-1(2H)-carboxamide] showed an IC50 (FGFR1 kinase) greater than 10 µM, an IC50 (Hep 3B cells) of 0.0027 µM and an IC50 (HuH-7 cells) of 0.0112 µM. For the same molecule, the IC50 (SK-HEP-1 cells) was greater than 10 µM, the Peak Time tmax [1] was 2 h and the AUC(0-t) [1] was 6.7 µg·h/mL. For the same molecule, the AUC(0-inf) [1] was 6.84 µg·h/mL, the half-life [1] was 0.9 h and the MRT [1] was 3.1 h. The Cmax [1] was 2.69 µg/mL.

In the case of CN(Cc1cc2c(nc1C=O)N(C(=O)Nc1cc(N[C@H]3CCOC3)c(C#N)cn1)CCC2)C(=O)[C@H]1CCCO1 [Example 94, N-(5-Cyano-4-(((S)-tetrahydrofuran-3-yl)amino)pyridin-2-yl)-7-formyl-6-(((R)—N-methyltetrahydrofuran-2-carboxamido)methyl)-3,4-dihydro-1,8-naphthyridin-1 (2H)-carboxamide], the IC50 (FGFR1 kinase) is reported as greater than 10 µM, the IC50 (Hep 3B cells) is reported as 0.0039 µM and the IC50 (HuH-7 cells) is reported as 0.0138 µM. For the same molecule, the IC50 (SK-HEP-1 cells) was greater than 10 µM, the Peak Time tmax [1] was 2 h and the AUC(0-t) [1] was 13 µg·h/mL. For the same molecule, the AUC(0-inf) [1] was 12.4 µg·h/mL, the half-life [1] was 0.8 h and the MRT [1] was 2.8 h. The Cmax [1] was 3.75 µg/mL.

Molecule COCC(=O)N(C)Cc1cc2c(nc1C=O)N(C(=O)Nc1cc(N3CC[C@@H](OC)C3)c(C#N)cn1)CCC2 [Example 107, (R)—N-(5-Cyano-4-(3-methoxypyrrolidin-1-yl)pyridin-2-yl)-7-formyl-6-((2-methoxy-N-methylacetamido)methyl)-3,4-dihydro-1,8-naphthyridin-1(2H)-carboxamide] has an IC50 (FGFR1 kinase) greater than 10 µM, an IC50 (Hep 3B cells) of 0.0016 µM and an IC50 (HuH-7 cells) of 0.0073 µM. The IC50 (SK-HEP-1 cells) was greater than 10 µM, the Peak Time tmax [1] was 4 h and the AUC(0-t) [1] was 2.63 µg·h/mL. It also gave an AUC(0-inf) [1] of 2.67 µg·h/mL, a half-life [1] of 1 h and an MRT [1] of 2.8 h. It also gave a Cmax [1] of 1.95 µg/mL.

For COCCNc1cc(NC(=O)N2CCCc3cc(CN4CC[C@H](OC)C4=O)c(C=O)nc32)ncc1C#N [Example 46, (S)—N-(5-Cyano-4-((2-methoxyethyl)amino)pyridin-2-yl)-7-formyl-6-((3-methoxy-2-carbonylpyrrolidin-1-yl)methyl)-3,4-dihydro-1,8-naphthyridin-1(2H)-carboxamide], the IC50 (FGFR1 kinase) was greater than 10 µM, the IC50 (Hep 3B cells) was 0.0023 µM and the IC50 (HuH-7 cells) was 0.009 µM. For the same molecule, the IC50 (SK-HEP-1 cells) was greater than 10 µM, the Peak Time tmax [1] was 2 h and the AUC(0-t) [1] was 10.7 µg·h/mL. It also gave an AUC(0-inf) [1] of 11.3 µg·h/mL, a half-life [1] of 1 h and a Cmax [1] of 3.29 µg/mL.

For COCCNc1cc(NC(=O)N2CCCc3cc(CN(C)C(=O)[C@H]4CCCO4)c(C=O)nc32)ncc1C#N [Example 1, (R)—N-(5-Cyano-4-((2-methoxyethyl)amino)pyridin-2-yl)-7-formyl-6-((N-methyltetrahydrofuran-2-carboxamido)methyl)-3,4-dihydro-1,8-naphthyridin-1(2H)-carb oxamide], the IC50 (FGFR1 kinase) was greater than 10 µM, the IC50 (Hep 3B cells) was 0.0073 µM and the IC50 (HuH-7 cells) was 0.011 µM. For the same molecule, the IC50 (SK-HEP-1 cells) was greater than 10 µM, the Peak Time tmax [1] was 2 h and the AUC(0-t) [1] was 6.8 µg·h/mL. For the same molecule, the AUC(0-inf) [1] was 6.93 µg·h/mL, the half-life [1] was 1.1 h and the MRT [1] was 3.1 h. It also gave a Cmax [1] of 2.07 µg/mL.

In the case of COC[C@@H](C)Nc1cc(NC(=O)N2CCCc3cc(CN4CC[C@H](OC)C4=O)c(C=O)nc32)ncc1C#N [Example 89, N-(5-Cyano-4-(((R)-1-methoxypropan-2-yl)amino)pyridin-2-yl)-7-formyl-6-(((S)-3-methoxy-2-carbonylpyrrolidin-1-yl)methyl)-3,4-dihydro-1,8-naphthyridin-1(2H)-carboxamide], the IC50 (FGFR1 kinase) is reported as greater than 10 µM, the IC50 (Hep 3B cells) is reported as 0.0019 µM and the IC50 (HuH-7 cells) is reported as 0.0023 µM. The IC50 (SK-HEP-1 cells) was greater than 10 µM, the Peak Time tmax [1] was 2 h and the AUC(0-t) [1] was 3.1 µg·h/mL. The AUC(0-inf) [1] was 3.13 µg·h/mL, the half-life [1] was 1 h and the MRT [1] was 2.5 h. It also gave a Cmax [1] of 1.99 µg/mL.

Work on COC[C@@H](C)Nc1cc(NC(=O)N2CCCc3cc(CN(C)C(=O)[C@H]4CCCO4)c(C=O)nc32)ncc1C#N [Example 93, N-(5-Cyano-4-(((R)-1-methoxypropan-2-yl)amino)pyridin-2-yl)-7-formyl-6-(((R)—N-methyltetrahydrofuran-2-carboxamido)methyl)-3,4-dihydro-1,8-naphthyridin-1(2H)-carboxamide] yielded an IC50 (FGFR1 kinase) greater than 10 µM, an IC50 (Hep 3B cells) of 0.0037 µM and an IC50 (HuH-7 cells) of 0.005 µM. It also gave an IC50 (SK-HEP-1 cells) greater than 10 µM, a Peak Time tmax [1] of 2 h and an AUC(0-t) [1] of 9.42 µg·h/mL. It also gave an AUC(0-inf) [1] of 9.48 µg·h/mL, a half-life [1] of 0.9 h and an MRT [1] of 2.5 h. It also gave a Cmax [1] of 2.86 µg/mL.

For COCCNc1cc(NC(=O)N2CCCc3cc(CN(C)C(=O)[C@H]4CCOC4)c(C=O)nc32)ncc1C#N [Example 6, (S)—N-(5-Cyano-4-((2-methoxyethyl)amino)pyridin-2-yl)-7-formyl-6-((N-methyltetrahydrofuran-3-carboxamido)methyl)-3,4-dihydro-1,8-naphthyridin-1(2H)-carb oxamide], the IC50 (FGFR1 kinase) was greater than 10 µM, the IC50 (Hep 3B cells) was 0.0027 µM and the IC50 (HuH-7 cells) was 0.0097 µM. It also gave an IC50 (SK-HEP-1 cells) greater than 10 µM.

With COCCNc1cc(NC(=O)N2CCCc3cc(CN(C)C(=O)[C@@H]4CCOC4)c(C=O)nc32)ncc1C#N [Example 7, (R)—N-(5-Cyano-4-((2-methoxyethyl)amino)pyridin-2-yl)-7-formyl-6-((N-methyltetrahydrofuran-3-carboxamido)methyl)-3,4-dihydro-1,8-naphthyridin-1(2H)-carb oxamide] the IC50 (FGFR1 kinase) was greater than 10 µM, the IC50 (Hep 3B cells) was 0.0047 µM and the IC50 (HuH-7 cells) was 0.0106 µM. The IC50 (SK-HEP-1 cells) was greater than 10 µM.

Reference: patent US11608332B2, “FGFR4 inhibitor and preparation method and use thereof” (Jiangsu Hansoh Pharmaceutical Group Co., Ltd., priority 2016, dated 2023)
